Source: paper PMC8781304, “Arene-Ruthenium(II) Complexes with Carbothiamidopyrazoles as a Potential Alternative for Antibiotic Resistance in Human” (Molecules, 2022)
“And” between values parts separate entries of the source, which are not always exact repeats. Identical values can stand only once.

What was measured:
[1] = system: Staphylococcus aureus ATCC 29213; assay: Fluorescence microscopy, Hoechst 33258 / propidium iodide viability; assay type: cell-based; details: S. aureus ATCC 29213; MIC concentration, 24 h
Method: (§1) Staphylococcus aureus ATCC 29213 and Staphylococcus epidermidis ATCC 12228 strains were treated with tested compounds 2a–2d and 3a–3d at a concentration 1 × MIC for 24h, while untreated cells were used as a growth control. After incubation, the cells were harvested and a suspension of 1 × 10^5 cells/mL in PBS was prepared. Following this, 1 µl of the fluorescent dyes Hoechst 33258 and propidium iodide (15 µg/mL each) (Sigma, St. Louis, MO, USA) were added. The obtained mixture was incubated in the dark at room temperature for 15–20 min. After incubation, the cell suspensions, placed on glass slides, were analyzed under an Olympus IX 70 fluorescence microscope (Shinjuku, Tokyo, Japan), using a 360–370 nm UV filter. Photos were taken at 10 × 20 magnification.

[2] = system: Staphylococcus epidermidis ATCC 12228; assay: as above; assay type: cell-based; details: S. epidermidis ATCC 12228; MIC concentration, 24 h
Method: as §1

S. aureus ATCC 29213 = assay: Time-kill test; assay type: cell-based, Staphylococcus aureus; details: 1 × MIC
Method: The time-kill experiments were performed as described previously. Briefly, inocula were prepared in TSB medium (TSB; […] BTL Sp. z o.o., Łódź, Poland). All samples were incubated at 35 °C and 80 rpm for varied time intervals (2, 4, 6, 12, 18, 24, 48h). The percentage of dead cells was calculated according to the growth control by determining the number of living cells (CFU/mL) of each tube using the agar plate count method. Samples were immediately serially diluted ten-fold in 0.01 M phosphate buffered saline (PBS, Bimed Lublin S.A., Lublin, Poland) at pH 7.0 and 10 μL aliquots were spot-inoculated in duplicate onto MHA plates. Agar plates were incubated at 37 °C overnight before determining the viable count. Two independent experiments were carried out.

[3] = system: S. epidermidis ATCC 12228; assay: Synergy with oxacillin and vancomycin, partial checkerboard broth microdilution; assay type: cell-based, Staphylococcus epidermidis; details: S. epidermidis ATCC 12228; for FIC (Oxa) / FIC (Van): MIC antibiotic in combination/MIC antibiotic alone; for MIC Oxa in Combination: oxacillin with the complex at ½ MIC (NH4PF6 250 µg/mL); for MIC Van in Combination: vancomycin with the complex at ½ MIC (NH4PF6 250 µg/mL)
[4] = system: S. epidermidis ATCC 12228; assay: Cell lysis (bacteriolysis, OD600); assay type: cell-based, Staphylococcus epidermidis; details: 1 × MBC
[5] = system: Proteus vulgaris ATCC 8427; assay: MIC and MBC/MFC by broth microdilution; assay type: cell-based; details: P. vulgaris ATCC 8427
Method: (§2) Reference strains of bacteria and fungi: Staphylococcus aureus ATCC 29213, Staphylococcus epidermidis ATCC 12228, Enterococcus faecalis ATCC 29212, Pseudomonas aeruginosa ATCC 25619, Proteus vulgaris ATCC 8427, and Candida albicans ATCC 10231 (Manassas, VA, USA) were used to screen the antimicrobial activity of the arene-ruthenium(II) complexes 3a-3d, NH4PF6 and selected antibiotics. The microorganisms were grown for 24 h (bacteria) or 48 h (fungi) in 35-37 °C in tryptic-soy agar (TSA; BTL Sp. z o.o., Łódź, Poland) or Sabouraud's dextrose agar (SDA; BTL Sp. z o.o., Łódź, Poland) according to nutritional requirements. Microbial suspensions at a density of about 5 × 10^5 CFU/mL were prepared in Mueller-Hinton broth (MHB; BTL Sp. z o.o., Łódź, Poland) or RPMI-1640 medium (Sigma, St. Louis, MO, USA) for bacteria and fungi, respectively. […] Louis, MO, USA). Stock solutions of the lyophilized compounds were freshly prepared in 100% DMSO (POCh, Gliwice, Poland) for the complexes, or in water for injection (Sigma, St. Louis, MO, USA) in the case of antibiotics. […] MIC and MBC/MFC were defined as the lowest concentrations of the compounds inhibiting bacterial/fungal growth or able to kill added microbial inoculum, respectively, and were evaluated as described by […] et al.. Experiments were carried out in duplicate.

[6] = system: Staphylococcus aureus ATCC 29213; assay: MIC and MBC/MFC by broth microdilution; assay type: cell-based; details: S. aureus ATCC 29213
Method: as §2

[7] = system: Staphylococcus epidermidis ATCC 12228; assay: MIC and MBC/MFC by broth microdilution; assay type: cell-based; details: S. epidermidis ATCC 12228
Method: as §2

[8] = system: Enterococcus faecalis ATCC 29212; assay: MIC and MBC/MFC by broth microdilution; assay type: cell-based; details: E. faecalis ATCC 29212
Method: as §2

[9] = system: Pseudomonas aeruginosa ATCC 25619; assay: MIC and MBC/MFC by broth microdilution; assay type: cell-based; details: P. aeruginosa ATCC 25619
Method: as §2

[10] = system: Candida albicans ATCC 10231; assay: MIC and MBC/MFC by broth microdilution; assay type: cell-based; details: C. albicans ATCC 10231
Method: as §2

[11] = system: human foreskin fibroblast HFF-1 (ATCC-SCRC-1041); assay: Cytotoxicity, MTT reduction assay; assay type: cell-based; details: HFF-1, MTT; for IC50: 24 h, tested 3.9–500 μM
Method: The cytotoxicity of arene-ruthenium(II) complexes 3a–3d was determined using the MTT (3-(4,5-dimethylthiazol-2-yl)-2,5-diphenyltetrazolium bromide; Sigma, St. Louis, MO, USA) reduction assay and a human foreskin fibroblast HFF-1 culture (ATCC-SCRC-1041) (LGC Standards Sp. z o.o., Poland) at a final concentration range of 3.9–500 µM. The HFF-1 cells were cultured in Dulbecco’s Modified Eagle’s Medium (DMEM; Sigma, St. Louis, MO, USA) with 15% fetal bovine serum (FBS; BioWest, Nuaillé, France) and penicillin/streptomycin (100 × stock solution; BioWest, Nuaillé, France), 1 × 10^6 cell/mL (100 µL/well) in 96-well tissue culture plates (Nunc, Roskilde, Denmark) for 24 h at 37 °C/5% CO2. The cells were then exposed to arene-ruthenium(II) complexes for 24 h at 37 °C. The control (untreated) cells were exposed to culture medium alone or culture medium containing 2% DMSO to exclude the effect of the solvent used to prepare the stock solutions of the tested complexes. Next, fresh culture medium (100 µL/well) and MTT (1.5 mg/mL, 50 µL/well) were added, and cells were incubated for two hours under the above conditions. MTT was […] blue formazan crystals produced by the metabolically active cells. Finally, the MTT solution was removed and replaced with 100 µL/well of 20% sodium dodecyl sulfate (SDS; Sigma, St. Louis, MO, USA) for 24 h (room temperature) to dissolve the blue formazan. Based on the absorbance (λ = 550 nm) of tested and control cells (100% viability), the percentage of cell viability after exposure was calculated. For each sample, the experiment was performed twice.

| Compound | Change in bacterial viability (Hoechst 33258 / PI fluorescence) [1] | Change in bacterial viability (Hoechst 33258 / PI fluorescence) [2] | Time-kill: bacteriostatic or bactericidal (S. aureus ATCC 29213) | FIC (Oxa) [3] | FIC (Van) [3] | MIC Oxa in Combination [3] [µg/mL] | MIC Van in Combination [3] [µg/mL] | Cell lysis, change of OD600 [4] | MBC/MFC [5] [µg/mL] | MIC [5] [µg/mL] | MBC/MFC [6] [µg/mL] | MIC [6] [µg/mL] | MBC/MFC [7] [µg/mL] | MIC [7] [µg/mL] | MBC/MFC [8] [µg/mL] | MIC [8] [µg/mL] | MBC/MFC [9] [µg/mL] | MIC [9] [µg/mL] | MBC/MFC [10] [µg/mL] | MIC [10] [µg/mL] | further results |
| --- | --- | --- | --- | --- | --- | --- | --- | --- | --- | --- | --- | --- | --- | --- | --- | --- | --- | --- | --- | --- | --- |
| Cc1cc(C)[n+]2n1C(N)=[S+][Ru-]2[Cl].Cc1ccc(C(C)C)cc1.F[P-](F)(F)(F)(F)F [Compound 3a] | Less changes in cell survival | Less changes in cell survival | bacteriostatic | 0.06 | 0.03 | 0.015 | 0.015 | not found to change OD600 values | >1000 | >1000 | 62.5 | 62.5 | 125 | 125 | 125 | 125 | >1000 | >1000 | >1000 | 500 | Concentration above which cytotoxicity was seen [11]: above 250 μM; IC50 [11]: 380 µM and > 350 µM |
| CCc1cc(CC)[n+]2n1C(N)=[S+][Ru-]2[Cl].Cc1ccc(C(C)C)cc1.F[P-](F)(F)(F)(F)F [Compound 3b] | Less changes in cell survival | Less changes in cell survival | bacteriostatic | 0.06 | 0.03 | 0.015 | 0.015 | not found to change OD600 values | >1000 | >1000 | 62.5 | 62.5 | 62.5 | 31.2 | 125 | 62.5 | >1000 | >1000 | >1000 | 1000 | Correlation with Oxa and Van (synergy), in words [3]: synergistic effect in all tested configurations; Concentration above which cytotoxicity was seen [11]: above 250 μM; IC50 [11]: 355 µM and > 350 µM |
| [(η^6-p-cymene)Ru(1-[amino(thioxo)methyl]-5-hydroxy-3-phenyl-1H-pyrazole)PF6 [Compound 3c] | greatest changes in bacterial viability | greatest changes in bacterial viability | bacteriostatic | 0.06 | 0.03 | 0.015 | 0.015 | quite moderate decrease in OD600 | >1000 | >1000 | 31.2 | 15.6 | 31.2 | 31.2 | 250 | <31.2 | >1000 | >1000 | >1000 | >1000 | IC50 [11]: 264 µM |
